Test results from EP2106802A1, “Modified peptides as synthetic vaccines in amyloid-associated disease” (SIGMA-TAU Industrie Farmaceutiche Riunite S.p.A., priority 2008, dated 2009).
No end group written: not given here.

Legend:
[1] = phase II studies, patients who received the vaccine; cited from earlier work
[2] = active vaccination, APP transgenic mice; cited from earlier work
[3] = system: T lymphocytes expressing CXCR5 in PBMCs of healthy donors; assay: CXCR5 expression in T-lymphocytes after peptide stimulation (flow cytometry); type: cell-based, human; conditions: for Percentage of T-lymphocytes expressing CXCR5, 1st and 3rd quartine: 1st and 3rd quartile of 10 donors; for expression of CXCR5 with respect to CTR: T-lymphocytes, Friedman test, result in words; for Percentage of T-lymphocytes expressing CXCR5: peptides 5ug/ml, 4 days after third stimulation; for Percentage of T-lymphocytes expressing CXCR5, Median: median of 10 donors, * P = <0,001 (Friedman)
Experimental: In order to evaluate the expression of a specific marker (CXCR5) in cultured […], the cells, 4 days after the third stimulation, were washed twice and stained with anti-CXCR5, in PBS supplemented with 0.5% FCS and 0.01%NaN3 at 4°C. After twenty minutes they were washed twice and analysed on FACSCanto flow cytometer (Becton Dickinson). The data were analyzed using FlowJo software (TreeStar, CA, USA).
Table 3. The CXCR5 expression measured as % of T lymphocytes expressing CXCR5 in PBMCs of healthy donors vs total lymphocytes (median, 1st and 3rd quartile) has been reported. Friedman Repeated Measures Analysis of Variance on Ranks has been performed. Column 1: number of different donors (Pz); column 2: the percentage of control (CTR) not challenged T lymphocytes expressing CXCR5; columns 3-12: the percentage of T lymphocytes expressing CXCR5 after the stimulation with different peptides.
CXCR5, a chemokine transmembrane receptor belonging to the CXC chemokine receptor family plays an essential role in B cell activation (Legler D.F., et al., J. Exp. Med., 1998, 187, 4, 655). The CXCR5 expression was measured as % of T-lymphocytes expressing CXCR5 versus total lymphocytes (median, 1st and 3rd quartile) and Friedman Repeated Measures Analysis of Variance on Ranks was performed.

[4] = system: IFN-γ
Experimental: To do this, the T-lymphocytes form peripheral blood mononuclear cells (PBMCs) response to Aβ[1-42] and Aβ[1-16], Aβ[1-16]-G, Aβ[1-16]+G, Aβ[13-28], Aβ[13-28]-G, Aβ[13-28]+G, Aβ[25-42], Aβ[25-42]-G, Aβ[25-42]+G was studied with the following experimental procedure:
In order to obtain mature dentritic cells, PBMCs from healthy donors were isolated by Ficoll-Hypaque gradient centrifugation (Pharmacia, Uppsala, Sweden). The cells were washed twice with PBS and finally were cultured at 10^6 cells/ml in RPMI 1640 supplemented with 10% (v/v) heat inactivated human serum (Bio Whittaker; Cambrex, Bioscience, Walkersville, MD Usa), 2mM L-glutamine, 20mM HEPES [N-2-hydroxyethylpiperazine-N'-2-ethanesulfonic acid], 1mM sodium pyruvate, 20mM non-essential amino acids, 55 µM 2-β-mercaptoethanol, 10 U/ml penicillin and streptomycin (Gibco and Invitrogen).
In order to obtain a pure culture of human peripheral blood monocytes, cells were purified by plastic adherence at 37°C for 30 minutes, followed by extensive washing with warm PBS to remove non-adherent cells. The monocytes were cultured in six-well plates (0,5 to 1,5 * 10^6 cells/m) in fresh complete medium supplemented with 1000U/ml of recombinant granulocyte-macrophage colony-stimulating factor (rGM-CSF) and 500U/ml interleukin-4 (IL-4, Pharmigen) for four days. The non-adherent mononuclear cells were washed repeatedly and cultured in 96-well round bottom plates (Nunc, Denmark) (10^6 cell/ml) in complete culture medium supplemented with interleukin-2 (IL-2; 5U/ml; Roche) for 4 days and used for subsequent studies. Monocytes-derived immature dendritic cells (DCs) were stimulated with the Aβ[1-16], Aβ[1-16]-G, Aβ[1-16]+G, Aβ[13-28], Aβ[13-28]-G, Aβ[13-28]+G, Aβ[25-42], Aβ[25-42]-G, Aβ[25-42]+G and Aβ[1-42] peptides (5ug/ml) for 1 day. For induction of dentritic cells (DC) maturation, the cells were stimulated with 50ng/ml TNFα (Pharmigen), 10ng/ml IL-6, 10ng/ml IL-1β, and 1µg/ml PGE2 for additional 2 days. Finally, they were cultured with autologous T-lymphocytes in 96-well flat bottom plates at a 1:4 ratio. A second stimulation with mature autologous monocyte-derived DC's previously stimulated with the peptides was performed at 10-14 days at the same ratios. Following further 10-14 days, lymphocytes were labelled with CFDA challenged with a third stimulation of monocyte-derived DC in the presence of peptides.
In order to evaluate the amount of IFN-γ produced by lymphocytes after the final third peptides stimulation the supernatants from cultured cells were harvested at 24 or 48 hr after the third stimulation. Cytokines were quantified by a standard-2-site sandwich enzyme-liked immunosorbent assay (ELISA). Abs for human IFN-γ were purchased from Pharmigen. Enhanced protein-binding ELISA plates (Nunc Maxisorb, Nunc Maxi, Roskilde, Denmark) were used.

Substance	patients who developed meningoencephalitis [1]	amyloid pathology [2]	Percentage of T-lymphocytes expressing CXCR5, 1st and 3rd quartine [3]	expression of CXCR5 with respect to CTR [3]	Percentage of T-lymphocytes expressing CXCR5 ([3]; donor Pz1) [%]	Percentage of T-lymphocytes expressing CXCR5 ([3]; donor Pz2) [%]	Percentage of T-lymphocytes expressing CXCR5 ([3]; donor Pz3) [%]	Percentage of T-lymphocytes expressing CXCR5 ([3]; donor Pz4) [%]	Percentage of T-lymphocytes expressing CXCR5 ([3]; donor Pz5)	Percentage of T-lymphocytes expressing CXCR5 ([3]; donor Pz6)	Percentage of T-lymphocytes expressing CXCR5 ([3]; donor Pz7)	Percentage of T-lymphocytes expressing CXCR5 ([3]; donor Pz8) [%]	Percentage of T-lymphocytes expressing CXCR5 ([3]; donor Pz9) [%]	Percentage of T-lymphocytes expressing CXCR5 ([3]; donor Pz10) [%]	Percentage of T-lymphocytes expressing CXCR5, Median [3]	production of IFN-γ in challenged T-lymphocytes [4]
AN1792: aggregated Aβ[1-42], first βA active vaccination (Pharmaceuticals Inc/Wyeth Pharmaceuticals)	about 6%	showed improvement in amyloid pathology	–	–	–	–	–	–	–	–	–	–	–	–	–	–
Seq.8: Aβ[25-42] fragment of the Aβ[1-42] sequence (GSNKGAIIGLMVGGVVIA)	–	–	8.2-36.7%	statistically different expression of CXCR5 with respect to CTR	19.00	13.06	64.04	0.08	8,2%	7,3%	15,8%	45.00	36.07	36.00	17.4* %	statistically significative production of IFN-γ
Seq.1: Aβ[1-42] synthetic peptide, neurotoxic β amyloid peptide [reference compound]	–	–	8.6-40.2%	statistically different expression of CXCR5 with respect to CTR	19.06	15.07	68.0	0.09	8,6%	–	13,3%	–	–	–	17.7* %	statistically significative production of IFN-γ
Seq.6: Aβ[13-28] fragment modified by introduction of glycines in alternate positions, at odd positions (-G) (GHGKGVGFGEGVGSGK)	–	–	11.3-39.9%	statistically different expression of CXCR5 with respect to CTR	22.04	23.03	25.09	0	13,4%	7,3%	14,6%	43.03	31.03	29.05	21.7* %	statistically significative production of IFN-γ
Seq.5: Aβ[13-28] fragment of the Aβ[1-42] sequence (HHQKLVFFAEDVGSNK)	–	–	8.5-30.4%	statistically different expression of CXCR5 with respect to CTR	15.05	23.05	12.08	1.02	8,5%	7,4%	13,5%	45.01	33.00	30.04	14.5* %	statistically significative production of IFN-γ
Seq.3: Aβ[1-16] fragment modified by introduction of glycines in alternate positions, at odd positions (-G) (GAGFGHGSGYGVGHGK)	–	–	14.1-39.9%	statistically different expression of CXCR5 with respect to CTR	16.05	20.05	64.01	2.09	9,5%	6,9%	14,7%	40.06	35.03	36.00	30.6* %	statistically significative production of IFN-γ
Seq.9: Aβ[25-42] fragment modified by introduction of glycines in alternate positions, at odd positions (-G) (GSGKGAGIGLGVGGGVGA)	–	–	9.2-33.4%	statistically different expression of CXCR5 with respect to CTR	23.01	15.02	11.03	0.08	11,3%	7,5%	13,4%	61.07	36.01	34.06	14.9* %	statistically significative production of IFN-γ
GGNGGGIGGGMGGGVGIG [Seq.10]	–	–	–	–	–	–	–	–	–	–	–	–	–	–	–	statistically significative production of IFN-γ
